Results: PubChem BioAssay AID248 (DTP/NCI, 2004)
Several values for one entry are separate records, joined by “and”; a condition that tells them apart may be missing. Equal entries are not always repeated. Toxic doses and inconclusive results are not listed. Cut-off read from the data, not from the text of the source: active = T/C of 150% or more; inactive = T/C below 125%.

System: L1210 leukemia ip in BDF1 mice, survival T/C
Assay: NCI In Vivo Anticancer Drug Screen. Data for tumor model L1210 Leukemia (intraperitoneal) in B6D2F1 (BDF1) mice
Details: endpoint: mean survival time, higher = longer survival
How it was run: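 Value reflects the ratio of survival in compound-treated mice to survival in vehicle-treated controls, with both groups carrying the same transplanted tumor.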

[1] = dose: 100.0 mg/kg/injection, schedule: Q04DX003 (ip), vehicle: saline with Tween-80
[2] = dose: 200.0 mg/kg/injection, schedule: Q04DX003 (ip), vehicle: saline with Tween-80
[3] = dose: 400.0 mg/kg/injection, schedule: Q04DX003 (ip), vehicle: saline with Tween-80
[4] = dose: 25.0 mg/kg/injection, schedule: Q01DX009 (ip), vehicle: Klucel (hydroxypropylcellulose) (HPC)
[5] = dose: 50.0 mg/kg/injection, schedule: Q01DX009 (ip), vehicle: Klucel (hydroxypropylcellulose) (HPC)
[6] = dose: 100.0 mg/kg/injection, schedule: Q01DX009 (ip), vehicle: Klucel (hydroxypropylcellulose) (HPC)
[7] = dose: 100.0 mg/kg/injection, schedule: Q04DX003 (ip), vehicle: Klucel (hydroxypropylcellulose) (HPC)
[8] = dose: 200.0 mg/kg/injection, schedule: Q04DX003 (ip), vehicle: Klucel (hydroxypropylcellulose) (HPC)
[9] = dose: 400.0 mg/kg/injection, schedule: Q04DX003 (ip), vehicle: Klucel (hydroxypropylcellulose) (HPC)

Measured: T/C

NC(=O)C(O)(c1ccccc1)c1ccccc1
inactive: dose: 100.0 mg/kg/injection, schedule: Q01DX001 (ip), vehicle: saline with Tween-80 100 % of control | dose: 200.0 mg/kg/injection, schedule: Q01DX001 (ip), vehicle: saline with Tween-80 97 % of control | dose: 400.0 mg/kg/injection, schedule: Q01DX001 (ip), vehicle: saline with Tween-80 101 % of control

Cc1cc(Br)c[nH]c1=O
inactive: [1] 98 % of control | [2] 98 % of control | [3] 102 % of control

O=c1[nH]cc(C(F)(F)F)c(=O)[nH]1
inactive: dose: 4.0 mg/kg/injection, schedule: Q01DX Z (oral), vehicle: methylcellulose (MC) 106 % of control | dose: 8.0 mg/kg/injection, schedule: Q01DX Z (oral), vehicle: methylcellulose (MC) 102 % of control | dose: 12.0 mg/kg/injection, schedule: Q01DX Z (oral), vehicle: methylcellulose (MC) 103 % of control and 91 % of control | dose: 16.0 mg/kg/injection, schedule: Q01DX Z (oral), vehicle: methylcellulose (MC) 90 % of control | dose: 50.0 mg/kg/injection, schedule: Q01DX Z (ip), vehicle: saline 103 % of control | dose: 100.0 mg/kg/injection, schedule: Q01DX Z (ip), vehicle: saline 107 % of control | dose: 200.0 mg/kg/injection, schedule: Q01DX Z (ip), vehicle: saline 116 % of control and 123 % of control | dose: 300.0 mg/kg/injection, schedule: Q01DX Z (ip), vehicle: saline 124 % of control | dose: 400.0 mg/kg/injection, schedule: Q01DX Z (ip), vehicle: saline 98 % of control | dose: 500.0 mg/kg/injection, schedule: Q01DX Z (ip), vehicle: saline 117 % of control | dose: 500.0 mg/kg/injection, schedule: Q01DX Z (oral), vehicle: methylcellulose (MC) 111 % of control | dose: 1000.0 mg/kg/injection, schedule: Q01DX Z (oral), vehicle: methylcellulose (MC) 93 % of control | dose: 1500.0 mg/kg/injection, schedule: Q01DX Z (oral), vehicle: methylcellulose (MC) 94 % of control | dose: 2000.0 mg/kg/injection, schedule: Q01DX Z (oral), vehicle: methylcellulose (MC) 88 % of control

CCOC(=O)OC1CC/C(=N\N=C(N)N)C1 (stereo not drawn)
inactive: dose: 15.0 mg/kg/injection, schedule: Q01DX Z (ip), vehicle: methylcellulose (MC) 110 % of control | dose: 30.0 mg/kg/injection, schedule: Q01DX Z (ip), vehicle: methylcellulose (MC) 96 % of control | dose: 120.0 mg/kg/injection, schedule: Q01DX Z (ip), vehicle: methylcellulose (MC) 92 % of control

O=CNc1cc(Cl)cc(Cl)c1
inactive: [4] 97 % of control | [5] 94 % of control | [6] 114 % of control

CCOc1n[n+]([O-])c(Cl)c(C)c1[N+](=O)[O-]
inactive: dose: 25.0 mg/kg/injection, schedule: Q04DX002 (ip), vehicle: saline with Tween-80 96 % of control | dose: 50.0 mg/kg/injection, schedule: Q04DX002 (ip), vehicle: saline with Tween-80 92 % of control | dose: 100.0 mg/kg/injection, schedule: Q04DX002 (ip), vehicle: saline with Tween-80 96 % of control

O=C(CC(=O)Nc1ccccc1)Cc1ccccc1
inactive: dose: 100.0 mg/kg/injection, schedule: Q01DX001 (ip), vehicle: saline 102 % of control | dose: 100.0 mg/kg/injection, schedule: Q01DX009 (ip), vehicle: saline 93 % of control | dose: 200.0 mg/kg/injection, schedule: Q01DX001 (ip), vehicle: saline 88 % of control | dose: 200.0 mg/kg/injection, schedule: Q01DX009 (ip), vehicle: saline 90 % of control | dose: 400.0 mg/kg/injection, schedule: Q01DX001 (ip), vehicle: saline 93 % of control | dose: 400.0 mg/kg/injection, schedule: Q01DX009 (ip), vehicle: saline 93 % of control

CCC1(C)CC(=O)N(C/C=C(\C)CCC(=O)O)C(=O)C1
inactive: dose: 100.0 mg/kg/injection, schedule: Q01DX009 (ip), vehicle: other 103 % of control | dose: 100.0 mg/kg/injection, schedule: Q04DX003 (ip), vehicle: other 89 % of control | dose: 200.0 mg/kg/injection, schedule: Q01DX009 (ip), vehicle: other 101 % of control | dose: 200.0 mg/kg/injection, schedule: Q04DX003 (ip), vehicle: other 100 % of control | dose: 400.0 mg/kg/injection, schedule: Q01DX009 (ip), vehicle: other 93 % of control | dose: 400.0 mg/kg/injection, schedule: Q04DX003 (ip), vehicle: other 96 % of control

OC(CCl)CBr (stereo not drawn)
inactive: dose: 6.25 mg/kg/injection, schedule: Q01DX009 (ip), vehicle: saline 96 % of control | dose: 6.25 mg/kg/injection, schedule: Q04DX003 (ip), vehicle: saline 97 % of control | dose: 12.5 mg/kg/injection, schedule: Q01DX009 (ip), vehicle: saline 96 % of control | dose: 12.5 mg/kg/injection, schedule: Q04DX003 (ip), vehicle: saline 92 % of control | dose: 25.0 mg/kg/injection, schedule: Q01DX009 (ip), vehicle: saline 94 % of control | dose: 25.0 mg/kg/injection, schedule: Q04DX003 (ip), vehicle: saline 93 % of control

O=[N+]([O-])c1cc(F)c(F)cc1F
inactive: [7] 98 % of control | [8] 107 % of control

NC(=O)N/N=C1/CCCC(C(=O)O)C1 (stereo not drawn)
inactive: dose: 100.0 mg/kg/injection, schedule: Q01DX001 (ip), vehicle: Klucel (hydroxypropylcellulose) (HPC) 105 % of control | [7] 102 % of control | dose: 200.0 mg/kg/injection, schedule: Q01DX001 (ip), vehicle: Klucel (hydroxypropylcellulose) (HPC) 109 % of control | [8] 98 % of control | dose: 400.0 mg/kg/injection, schedule: Q01DX001 (ip), vehicle: Klucel (hydroxypropylcellulose) (HPC) 103 % of control | [9] 100 % of control

c1ccc(C2c3cccc4c3C3c5c2cccc5C(c2ccccc2)c2cccc(c23)C4c2ccccc2)cc1 (stereo not drawn)
inactive: [1] 108 % of control | [2] 95 % of control | [3] 100 % of control

Oc1ccc(C2(c3ccc(O)cc3)CCCCC2)cc1
inactive: dose: 25.0 mg/kg/injection, schedule: Q01DX009 (ip), vehicle: alcohol 112 % of control | dose: 50.0 mg/kg/injection, schedule: Q01DX009 (ip), vehicle: alcohol 117 % of control | dose: 100.0 mg/kg/injection, schedule: Q01DX009 (ip), vehicle: alcohol 87 % of control | dose: 100.0 mg/kg/injection, schedule: Q01DX009 (ip), vehicle: saline with Tween-80 89 % of control | dose: 200.0 mg/kg/injection, schedule: Q01DX009 (ip), vehicle: saline with Tween-80 92 % of control

CCCCCCN(S(=O)(=O)c1ccc([N+](=O)[O-])cc1)S(=O)(=O)c1ccc([N+](=O)[O-])cc1
inactive: [7] 96 % of control | [8] 88 % of control | [9] 88 % of control

COc1ccc(OC)c(-c2cc(-c3ccccc3)nc(-c3cccc([N+](=O)[O-])c3)c2)c1
inactive: dose: 100.0 mg/kg/injection, schedule: Q04DX002 (ip), vehicle: gum acacia 102 % of control | dose: 200.0 mg/kg/injection, schedule: Q04DX002 (ip), vehicle: gum acacia 97 % of control | dose: 400.0 mg/kg/injection, schedule: Q04DX002 (ip), vehicle: gum acacia 91 % of control

CC(=O)C(=Cc1c[nH]c2ccccc12)C(C)=O
inactive: dose: 50.0 mg/kg/injection, schedule: Q01DX009 (ip), vehicle: water 98 % of control | dose: 100.0 mg/kg/injection, schedule: Q01DX009 (ip), vehicle: water 112 % of control | dose: 100.0 mg/kg/injection, schedule: Q04DX003 (ip), vehicle: water 106 % of control | dose: 200.0 mg/kg/injection, schedule: Q01DX009 (ip), vehicle: water 98 % of control | dose: 200.0 mg/kg/injection, schedule: Q04DX003 (ip), vehicle: water 103 % of control | dose: 400.0 mg/kg/injection, schedule: Q01DX009 (ip), vehicle: water 95 % of control | dose: 400.0 mg/kg/injection, schedule: Q04DX003 (ip), vehicle: water 104 % of control

CCC/C=C(\C)C(C)(C#N)C(=O)OCC (stereo not drawn)
inactive: dose: 75.0 mg/kg/injection, schedule: Q01DX001 (ip), vehicle: other 112 % of control | dose: 150.0 mg/kg/injection, schedule: Q01DX001 (ip), vehicle: other 98 % of control | dose: 300.0 mg/kg/injection, schedule: Q01DX001 (ip), vehicle: other 110 % of control

O=C1C=CC(=O)N1c1ccc([N+](=O)[O-])cc1[N+](=O)[O-]
inactive: dose: 12.5 mg/kg/injection, schedule: Q01DX009 (ip), vehicle: Klucel (hydroxypropylcellulose) (HPC) 98 % of control | [4] 103 % of control | [5] 103 % of control | [6] 105 % of control
